33 compounds from US9078909B2, “Tertiary amines, medicaments containing said amines, use thereof and processes for the preparation thereof” (Boehringer Ingelheim International GmbH, priority 2012, dated 2015) can be followed below.

The structures appear in SMILES notation.

By IC50 is commonly meant the concentration at which inhibition is half-maximal.

The target in one assay is T1, epithelial sodium channel (ENaC) (Mus musculus, UniProt Q61180+Q9WU38+Q9WU39).
T1 construct: Mouse kidney M-1 cells were cultivated in DMEM; endogenous in cells; host or cells: mouse kidney M-1 cells (cortical collecting duct line), dexamethasone-treated, on transwell filters
T1 sequence (Q61180 1-699): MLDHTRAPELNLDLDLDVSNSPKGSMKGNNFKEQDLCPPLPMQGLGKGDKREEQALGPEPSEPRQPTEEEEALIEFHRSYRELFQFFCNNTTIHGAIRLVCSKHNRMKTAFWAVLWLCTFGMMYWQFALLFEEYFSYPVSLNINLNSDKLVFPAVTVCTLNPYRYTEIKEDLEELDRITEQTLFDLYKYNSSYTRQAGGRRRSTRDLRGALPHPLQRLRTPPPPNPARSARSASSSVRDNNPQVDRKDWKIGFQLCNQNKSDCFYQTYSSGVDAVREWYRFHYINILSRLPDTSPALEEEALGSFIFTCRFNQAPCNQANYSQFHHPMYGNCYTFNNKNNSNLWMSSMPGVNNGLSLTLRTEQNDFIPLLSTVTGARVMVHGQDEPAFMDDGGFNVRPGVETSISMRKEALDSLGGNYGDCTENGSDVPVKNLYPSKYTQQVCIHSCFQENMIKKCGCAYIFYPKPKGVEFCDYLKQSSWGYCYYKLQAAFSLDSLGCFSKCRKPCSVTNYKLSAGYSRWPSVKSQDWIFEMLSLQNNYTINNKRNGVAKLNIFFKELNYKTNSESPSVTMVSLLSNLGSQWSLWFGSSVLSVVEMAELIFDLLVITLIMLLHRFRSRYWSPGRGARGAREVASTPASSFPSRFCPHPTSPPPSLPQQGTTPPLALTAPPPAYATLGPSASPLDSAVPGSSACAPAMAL
T1 sequence (Q9WU38 1-638): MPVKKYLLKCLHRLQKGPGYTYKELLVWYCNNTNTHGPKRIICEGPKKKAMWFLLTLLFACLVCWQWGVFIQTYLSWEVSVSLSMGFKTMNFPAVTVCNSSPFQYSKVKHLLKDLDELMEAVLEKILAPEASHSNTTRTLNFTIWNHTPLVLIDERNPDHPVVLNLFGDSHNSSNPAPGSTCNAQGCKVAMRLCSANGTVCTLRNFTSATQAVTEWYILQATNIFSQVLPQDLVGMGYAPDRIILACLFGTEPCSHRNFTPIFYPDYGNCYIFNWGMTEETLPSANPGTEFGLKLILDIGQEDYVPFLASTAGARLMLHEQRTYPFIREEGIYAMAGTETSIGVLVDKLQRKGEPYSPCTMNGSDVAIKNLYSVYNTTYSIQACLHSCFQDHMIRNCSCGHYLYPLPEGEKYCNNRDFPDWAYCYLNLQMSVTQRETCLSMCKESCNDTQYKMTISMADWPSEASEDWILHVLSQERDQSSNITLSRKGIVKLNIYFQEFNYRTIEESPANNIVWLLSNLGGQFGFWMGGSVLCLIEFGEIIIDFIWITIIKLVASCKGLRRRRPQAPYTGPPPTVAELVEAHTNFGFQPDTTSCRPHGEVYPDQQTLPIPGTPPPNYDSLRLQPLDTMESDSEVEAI
T1 sequence (Q9WU39 1-655): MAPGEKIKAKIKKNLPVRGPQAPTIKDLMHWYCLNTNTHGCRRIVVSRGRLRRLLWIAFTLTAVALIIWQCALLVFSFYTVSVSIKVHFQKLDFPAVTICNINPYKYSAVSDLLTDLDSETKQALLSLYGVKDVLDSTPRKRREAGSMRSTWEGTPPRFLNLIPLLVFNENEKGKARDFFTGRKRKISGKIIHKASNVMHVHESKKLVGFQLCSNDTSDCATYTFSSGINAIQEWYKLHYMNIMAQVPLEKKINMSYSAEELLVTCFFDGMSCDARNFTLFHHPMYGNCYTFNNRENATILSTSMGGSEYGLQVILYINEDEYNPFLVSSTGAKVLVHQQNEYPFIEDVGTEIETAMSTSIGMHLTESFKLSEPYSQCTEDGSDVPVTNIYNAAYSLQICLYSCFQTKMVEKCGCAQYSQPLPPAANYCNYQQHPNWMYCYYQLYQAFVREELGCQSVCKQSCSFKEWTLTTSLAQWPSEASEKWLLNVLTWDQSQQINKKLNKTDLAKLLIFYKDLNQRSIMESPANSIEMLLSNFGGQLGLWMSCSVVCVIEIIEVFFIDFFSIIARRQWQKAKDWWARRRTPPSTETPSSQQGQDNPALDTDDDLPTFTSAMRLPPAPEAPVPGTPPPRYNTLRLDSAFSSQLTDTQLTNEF
Description: Ussing Chamber assay: inhibition of amiloride sensitive short circuit current (I_sc) in M-1 cells. The format is cell-based.
Conditions: not given
How it is done: Ussing Chamber: Mouse kidney M-1 cells were cultivated in DMEM containing 5% FCS and 5 μM dexamethasone for 10 to 12 days on polyester transwell filters. Filters were inserted into a teflon-coated well-plate which fit into the in-house ussing chamber system. Prior to measurement the medium of M-1 cells was replaced with Caco-2 transport buffer (Invitrogen, Germany). During measurements, the Ussing chamber temperature was kept at 37° C. Short circuit currents (I_sc) were measured in the voltage-clamp mode using an in-house built amplifier (Boehringer Ingelheim, Biberach) with the software package Lab View for data acquisition and analysis. The transepithelial electrical resistance (TEER) was determined by the application of voltage steps of ±5 mV every 5 sec. Compounds were administered at a final concentration of 3 μM or at increasing concentrations (e.g. 1-3-10 μM) to the apical solution. At the end of each experiment the amiloride sensitive I_SC was measured by adding 3 μM amiloride to the apical compartment. Results are expressed as inhibition in percent of the amiloride effect or as IC50.
With the example compounds given above, the following IC50 values were determined in the Ussing Chamber assay: […]
Consider `CCOP(=O)(CN1CCC(NC(N)=NC(=O)c2nc(Cl)c(N)nc2N)CC1)OCC` [Example 4.16], for which the IC50 is 19 nM.

Staying with this assay, now noted: Ussing Chamber; mouse kidney M-1 cells on transwell filters; short circuit current; compound added to apical solution; 37° C.; read-out: IC50.
Take `NC(=NC(=O)c1nc(Cl)c(N)nc1N)NC1CCN(CC(=O)OCc2ccccc2)CC1` [Example 4.9]: the IC50 was 6 nM.

Take `CCCCOC(=O)CN1CCC(NC(N)=NC(=O)c2nc(Cl)c(N)nc2N)CC1` [Example 4.10]: the IC50 is 4 nM.

`COC(=O)CN1CCC(NC(N)=NC(=O)c2nc(Cl)c(N)nc2N)CC1` [Example 4.11]: the IC50 is 27 nM.

Regarding `COCCOCCOCCOCCN1CCC(NC(N)=NC(=O)c2nc(Cl)c(N)nc2N)CC1` [Example 4.12], the IC50 was determined as 55 nM.

For the compound `NC(=NC(=O)c1nc(Cl)c(N)nc1N)NC1CCN(CC2CCCC2)CC1` [Example 4.13], the IC50 turned out to be 30 nM.

On to `CCN1CCC(NC(N)=NC(=O)c2nc(Cl)c(N)nc2N)CC1` [Example 4.14], for which the IC50 came to 53 nM.

Take `NC(=NC(=O)c1nc(Cl)c(N)nc1N)NC1CCN(CC(=O)N2CCSCC2)CC1` [Example 4.15]: the IC50 came to 12 nM.

`CN1CCC(CN2CCC(NC(N)=NC(=O)c3nc(Cl)c(N)nc3N)CC2)CC1` [Example 4.17]: the IC50 came out at 72 nM.

On to `CC(C)(C)OC(=O)CN1CCC(NC(N)=NC(=O)c2nc(Cl)c(N)nc2N)CC1` [Example 4.18], for which the IC50 is 3 nM.

In the case of `CCOC(=O)C(C(=O)OCC)N1CCC(NC(N)=NC(=O)c2nc(Cl)c(N)nc2N)CC1` [Example 4.19], the IC50 amounted to 9 nM.

As for `NC(=NC(=O)c1nc(Cl)c(N)nc1N)NC1CCN(C(C(=O)NCc2ccccc2)C(=O)NCc2ccccc2)CC1` [Example 4.20], the IC50 amounted to 10 nM.

`CC(C)(C)NC(=O)CN1CCC(NC(N)=NC(=O)c2nc(Cl)c(N)nc2N)CC1` [Example 4.22]: the IC50 came to 4 nM.

In the case of `NC(=NC(=O)c1nc(Cl)c(N)nc1N)NC1CCN(CCCS(=O)(=O)O)CC1` [Example 4.23], the IC50 came to 147 nM.

`CC(C)(C)OC(=O)C1CCN(C(=O)CN2CCC(NC(N)=NC(=O)c3nc(Cl)c(N)nc3N)CC2)CC1` [Example 4.24]: the IC50 was 17 nM.

For `N=C(NC(=O)c1nc(Cl)c(N)nc1N)NC1CCN(CC(=O)O)CC1` [Example 5.1], the IC50 came to 266 nM.

On to `NC(=NC(=O)c1nc(Cl)c(N)nc1N)NC1CCN(CC(=O)NCC(=O)O)CC1` [Example 5.2], for which the IC50 was determined as 80 nM.

On to `NC(=NC(=O)c1nc(Cl)c(N)nc1N)NC1CCN(CCCC(=O)O)CC1` [Example 5.3], for which the IC50 amounted to 169 nM.

Turning to `NC(=NC(=O)c1nc(Cl)c(N)nc1N)NC1CCN(CC(=O)N2CCC(C(=O)O)CC2)CC1` [Example 5.4], the IC50 was 176 nM.

For the compound `COc1ccc(CNC(=O)CN2CCC(N/C(N)=N/C(=O)c3nc(Cl)c(N)nc3N)CC2)cc1` [Example 6.1], the IC50 was determined as 5 nM.

Take `COCCN(CCOC)C(=O)CN1CCC(NC(N)=NC(=O)c2nc(Cl)c(N)nc2N)CC1` [Example 6.2]: the IC50 was 27 nM.

As for `NC(=NC(=O)c1nc(Cl)c(N)nc1N)NC1CCN(CC(=O)NCc2ccccc2SC(F)(F)F)CC1` [Example 6.3], the IC50 was determined as 1 nM.

Turning to `COC(=O)c1ccc(CNC(=O)CN2CCC(NC(N)=NC(=O)c3nc(Cl)c(N)nc3N)CC2)cc1` [Example 6.4], the IC50 turned out to be 3 nM.

On to `COC(=O)c1cccc(CNC(=O)CN2CCC(NC(N)=NC(=O)c3nc(Cl)c(N)nc3N)CC2)c1` [Example 6.5], for which the IC50 turned out to be 6 nM.

Take `CCCCNC(=O)CN1CCC(NC(N)=NC(=O)c2nc(Cl)c(N)nc2N)CC1` [Example 6.6]: the IC50 stood at 1 nM.

Consider `CC(C)NC(=O)CN1CCC(NC(N)=NC(=O)c2nc(Cl)c(N)nc2N)CC1` [Example 6.7], for which the IC50 worked out at 3 nM.

Regarding `NC(=O)c1ccc(CNC(=O)CN2CCC(NC(N)=NC(=O)c3nc(Cl)c(N)nc3N)CC2)cc1` [Example 6.8], the IC50 came out at 5 nM.

As for `NC(=O)c1cccc(CNC(=O)CN2CCC(NC(N)=NC(=O)c3nc(Cl)c(N)nc3N)CC2)c1` [Example 6.9], the IC50 stood at 8 nM.

`CN1CCN(c2cccc(CNC(=O)CN3CCC(NC(N)=NC(=O)c4nc(Cl)c(N)nc4N)CC3)c2)CC1` [Example 6.10]: the IC50 is 3 nM.

For `NC(=NC(=O)c1nc(Cl)c(N)nc1N)NC1CCN(CC(=O)NCc2nccs2)CC1` [Example 6.11], the IC50 worked out at 3 nM.

In the case of `COCCNC(=O)CN1CCC(NC(N)=NC(=O)c2nc(Cl)c(N)nc2N)CC1` [Example 6.12], the IC50 turned out to be 2 nM.

Take `NC(=NC(=O)c1nc(Cl)c(N)nc1N)NC1CCN(CC(=O)NCc2ccc(N3CCNC3=O)cc2)CC1` [Example 6.13]: the half-inhibitory concentration (IC50) was 3 nM.

As to `N#CCN1CCC(NC(=N)NC(=O)c2nc(Cl)c(N)nc2N)CC1` [Example 7.1], the IC50 was found to be 35 nM.
